Data on six molecules can be found in patent EP4610269A1, “UROKINASE PLASMINOGEN ACTIVATOR SURFACE RECEPTOR (UPAR) LIGANDS FOR DIAGNOSTIC OR THERAPEUTIC USE” (3B Pharmaceuticals GmbH, priority 2024, dated 2025).

Read-outs that look alike come from different tables or passages of the source. *1 amine or outer side, *2 acyl side, *3 side chain or, on linkers, in order; H or OH if unused. Where a SMILES comes first, the peptide text is derived from it. Bridges are numbered along the chain shown (N, C = ends). Side-chain parts run from the residue outwards. [ ]: non-standard residue; d: D form. The star is where a group is joined. X12 = N=c1ccc2c(-c3ccc(C(=O)NCCCOCCOCCOCCCN*)cc3C(=O)O)c3ccc(N)c(S(=O)(=O)O)c3oc-2c1S(=O)(=O)O; DOTA(Lu) = O=C1CN2CCN3CCN(CC(=O)*)CCN(CC2)CC(=O)[O][Lu]([O]1)[O]C(=O)C3; X11 = O=C(CCCC[C@@H]1SC[C@@H]2NC(=O)N[C@@H]21)NCCCOCCOCCOCCCN*; Pro(cis-4-F) = O=C(O)[C@@H]1C[C@H](F)CN1; Dopa = N[C@@H](Cc1ccc(O)c(O)c1)C(=O)O; Hyp = O=C(O)[C@@H]1C[C@@H](O)CN1; X10 = CC(C)C[C@@H](C(=O)*)N(C)C; Cit = NC(=O)NCCC[C@H](N)C(=O)O; Butoxycarbonyl = CCCCOC(=O)*; NMeK = CN[C@@H](CCCCN)C(=O)O; Phg = N[C@H](C(=O)O)c1ccccc1; Suc = O=C(CCC(=O)[*:2])[*:1]; Nva = CCC[C@H](N)C(=O)O; Pentanoyl = CCCCC(=O)*; Ahx = NCCCCCC(=O)O; Sar = CNCC(=O)O

Assay [1] addresses T1, uPAR-expressing HEC-265 human endometrial adenocarcinoma cells (Homo sapiens, UniProt Q03405).
T1 construct: Cell surface uPAR-expressing HEC-265 human endometrial adenocarcinoma cells; host or cells: HEC-265
The experiment in a line: Competitive FACS binding assay. Particulars: pIC50 category of FACS binding. Here is the method:
In order to determine binding of compounds according to the present invention to uPAR-expressing cells, a competitive FACS binding assay was established.
Cell surface uPAR-expressing HEC-265 human endometrial adenocarcinoma cells (Japanese Collection of Research Bioresources, #JCRB1142) were cultured in MEM Eagle with stable glutamine (Pan Biotech, #P04-09500) including 15% fetal bovine serum (Pan Biotech, #P30-3306) and 100 U/ml penicillin and 100 µg/mL streptomycin (Pan Biotech, #P06-07100). Cells were detached with Cell Dissociation Buffer (Thermo Scientific, #13151014) and washed in FACS buffer (PBS (Pan Biotech, #P04-36500) including 1% BSA (SeraCare, #AP-4510-80). Cells were diluted in FACS buffer to a final concentration of 500.000 cells per ml and 200 µl of the cell suspension are transferred to a u-shaped non-binding 96-well plate (Greiner Bio-One, #650901).
For IC50 determination, cells were incubated with 10 nM Bio--Ttds--Ttds--Ttds--Ttds-D-Cha-FsrYLWS-NH2) in the presence of increasing concentrations of non-labeled test compounds at 4°C for 1 hour. Cells were washed twice in FACS buffer. An additional incubation step with 1 µg/mL APC-Streptavidin (Miltenyi; #130-106-791) in 50 µL FACS buffer for 30 minutes on ice was performed followed by two washes with FACS buffer. Cells were resuspended in 200 µl FACS buffer and analyzed in an Attune NxT flow cytometer. Median fluorescence intensities (APC channel) were calculated by Attune NxT software and plotted against peptide concentrations. Four parameter logistic (4PL) curve fitting and pIC50 calculations were performed using ActivityBase software.

For the next assay, the target named is T2, human uPAR (uPAR-Fc) (Homo sapiens, UniProt Q03405).
T2 construct: comprising amino acids Leu23-Arg303 according to UniProt entry Q03405.1; purchased R&D Systems 10378-UK-100
T2 sequence (Q03405 23-303): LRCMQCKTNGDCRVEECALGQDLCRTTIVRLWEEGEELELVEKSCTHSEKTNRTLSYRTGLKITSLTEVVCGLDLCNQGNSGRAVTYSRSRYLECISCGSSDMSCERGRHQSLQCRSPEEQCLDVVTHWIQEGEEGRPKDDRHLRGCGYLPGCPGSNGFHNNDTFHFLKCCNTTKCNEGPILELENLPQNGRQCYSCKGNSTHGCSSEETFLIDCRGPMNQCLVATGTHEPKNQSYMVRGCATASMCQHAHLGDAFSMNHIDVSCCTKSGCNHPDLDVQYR
Nature of the assay: Surface plasmon resonance (SPR) assay, single cycle kinetics. Type of assay: binding. As for the experimental part: Surface plasmon resonance (SPR) is an optical technique used to measure molecular interactions in real time. SPR occur when plane-polarized light hits a metal film under total internal reflection conditions. SPR signal is directly dependent on the refractive index of the medium on the sensor chip. In an SPR experiment, one molecule (i.e. uPAR) is immobilized on a sensor chip and binding to a second molecule (i.e. test compounds) is measured under flow. The binding of the compound on the surface changes the refractive index. In responses the reflection angle changes as compounds bind and dissociate on the immobilized protein on the surface. This response is measured in resonance units (RU). The RUs are proportional to the number of molecules bound to the surface. […] Kinetic binding constants and equilibrium binding constants can be derived from the sensorgrams.
Surface plasmon resonance (SPR) studies were performed using a Biacore™ T200 or S200 SPR system (Cytiva, formerly GE Life Sciences) to assess binding of compounds to recombinant uPAR protein.
In this example recombinant protein comprising the extracellular domains of human uPAR (uPAR-Fc, R&D Systems, CAT 10378-UK-100, comprising amino acids Leu23-Arg303 according to UniProt entry Q03405.1 and Fc region of human IgG1 at the C-terminus) was immobilized on a Protein A-Chip (Cytiva, CAT 29127555) according to the supplier's instructions. uPAR-Fc was diluted in Running Buffer (10 mM HEPES, 150 mM NaCl, 50 µM EDTA, 0.1% DMSO, 0.05% Tween-20, pH 7.4) to a final concentration of 100 nM and then flushed over the Protein A-Chip to immobilized ~2000 RUs.
Stock solutions of test compounds were prepared by dissolving each compound in DMSO. DMSO stock solution were diluted 1: 1000 in Running Buffer without DMSO. Further sequential dilutions were made with Running Buffer containing 0.1% DMSO. SPR binding analyses were performed in Single Cycle Kinetic (SCK) mode at 25°C. Flow cell without immobilized uPAR-Fc served as reference flow cell. The chip was regenerated with 10 mM Glycine, pH 1,5 to remove the uPAR-Fc from the chip surface after each SCK run. After every three SCK measurements, a blank run with Running Buffer instead of test compound was included to correct for baseline drifts (double reference substraction method). Table 11: SPR protocol steps for SCK with uPAR-Fc immobilized on a Protein A-Chip.
For each test compound, SPR raw data sensorgrams were recorded using the Biacore™ T200 or S200 control software. Sensorgrams were processed and analyzed with the Biacore™ Insight Evaluation software. […] The reference subtracted sensorgram for each test compound was further corrected for baseline drift by subtracting the sensorgram of a reference subtracted blank run (Running Buffer only). The dissociation constant (KD) was calculated from the double reference subtracted sensorgrams using the 1:1 Langmuir binding model. The pKD value (negative decadic logarithm of dissociation constant) was calculated using Microsoft Excel.

[2] abbreviates: pKD category for uPAR SPR activity assay, uPAR-Fc on Protein A-Chip, single cycle kinetics, 25°C, read-out: pKD CAT (converted).

T1 sequence (Q03405 23-335): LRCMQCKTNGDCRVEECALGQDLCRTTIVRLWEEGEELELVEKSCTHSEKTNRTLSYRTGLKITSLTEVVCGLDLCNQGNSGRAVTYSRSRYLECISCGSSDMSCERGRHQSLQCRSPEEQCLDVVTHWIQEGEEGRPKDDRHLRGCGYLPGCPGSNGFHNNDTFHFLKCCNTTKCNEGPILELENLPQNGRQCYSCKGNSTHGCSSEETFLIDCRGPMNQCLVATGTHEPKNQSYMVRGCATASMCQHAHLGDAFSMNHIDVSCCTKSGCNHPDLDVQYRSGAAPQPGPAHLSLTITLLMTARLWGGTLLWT

Take “LuDOTA-Ahx-Leu-[Cys-Arg-Gln-Tyr-Phe-Pro-ala-Ile-Leu-Cys]-NH2 ({DOTA(Lu)}-[Ahx]LCRQYFP[dA]ILC-NH2; disulfide 3-12; not fully specified; printed as LuDOTA-Ahx-Leu-[Cys-Arg-Gln-Tyr-Phe-Pro-ala-Ile-Leu-Cys]-NH₂; also: Lu(III) complexed by DOTA) [UPAR-170]”: the “pIC50 CAT” value in assay [1] was “A (pIC50 values ≥8.0)”.
Turning to `CCCCOC(=O)N[C@H]1CSSC[C@@H](C(N)=O)NC(=O)[C@H](CCC)NC(=O)[C@H]([C@@H](C)CC)NC(=O)[C@@H]2C[C@@H](O)CN2C(=O)[C@@H]2C[C@H](F)CN2C(=O)[C@H](Cc2ccccc2)NC(=O)[C@H](Cc2ccc(O)c(O)c2)NC(=O)[C@H](CCCCNC(=O)CCC(=O)NCCCOCCOCCOCCCNC(=O)c2ccc(-c3c4ccc(=N)c(S(=O)(=O)O)c-4oc4c(S(=O)(=O)O)c(N)ccc34)c(C(=O)O)c2)NC(=O)[C@H]([C@@H](C)O)NC1=O` [UPAR-479, Butoc-[Cys-Thr-Lys(AF488-Ttds)-Dopa-Phe-4Cfp-Hyp-Ile-Nva-Cys]-NH2] (Butoxycarbonyl-CTK([Suc-X12])[Dopa]F[Pro(cis-4-F)][Hyp]I[Nva]C-NH2; disulfide 1-10), the Kd on human uPAR (uPAR-Fc) was less than 1.58 nM.
Turning to `CCCCC(=O)N[C@H]1CSSC[C@@H](C(N)=O)NC(=O)[C@H](CCC)NC(=O)[C@H]([C@@H](C)CC)NC(=O)[C@H](CCCCN)N(C)C(=O)[C@@H]2CCCN2C(=O)[C@H](Cc2ccccc2)NC(=O)[C@H](Cc2ccc(O)cc2)NC(=O)[C@H](CCCCNC(=O)CCC(=O)NCCCOCCOCCOCCCNC(=O)CCCC[C@@H]2SC[C@@H]3NC(=O)N[C@@H]32)NC(=O)[C@H](CCCNC(N)=O)NC1=O` [UPAR-317, Pent-[Cys-Cit-Lys(Bio-Ttds)-Tyr-Phe-Pro-Nmk-Ile-Nva-Cys]-NH2] (Pentanoyl-C[Cit]K([Suc-X11])YFP[NMeK]I[Nva]C-NH2; disulfide 1-10), the Kd on human uPAR (uPAR-Fc) (pKD category for uPAR SPR activity assay, uPAR-Fc on Protein A-Chip, 25°C, read-out: pKD CAT (converted)) was 10 to 100 nM.
For the molecule `CCC[C@@H]1NC(=O)[C@H]([C@@H](C)CC)NC(=O)[C@@H]2C[C@@H](O)CN2C(=O)[C@@H]2CCCN2C(=O)[C@H](Cc2ccccc2)NC(=O)[C@H](Cc2ccc(O)cc2)NC(=O)[C@H](CCC(N)=O)NC(=O)[C@H](CCCNC(=N)N)NC(=O)[C@@H](NC(=O)[C@H](CC(C)C)N(C)C)CSSC[C@@H](C(N)=O)NC1=O` [UPAR-487, Me-Nml-[Cys-Arg-Gln-Tyr-Phe-Pro-Hyp-Ile-Nva-Cys]-NH2] (X10-CRQYFP[Hyp]I[Nva]C-NH2; disulfide 1-10), the Kd at human uPAR (uPAR-Fc) (setting [2]) was 1.58 to 10 nM.
In the case of “Pent-[Cys-Cit-Lys(LuDOTA)-Tyr-Phe-Pro-Nmg-Ile-Nva-Cys]-NH2 (Pentanoyl-C[Cit]K(DOTA(Lu))YFP[Sar]I[Nva]C-NH2; disulfide 1-10; not fully specified; also: Lu(III) complexed by DOTA) [UPAR-348]”, in assay [1], the “pIC50 CAT” value is reported as “A (pIC50 values ≥8.0)”.
Regarding `CCC[C@@H]1NC(=O)[C@H]([C@@H](C)CC)NC(=O)[C@@H]2C[C@@H](O)CN2C(=O)[C@@H]2CCCN2C(=O)[C@H](Cc2ccccc2)NC(=O)[C@H](Cc2ccc(O)cc2)NC(=O)[C@H](CCC(N)=O)NC(=O)[C@H](CCCNC(=N)N)NC(=O)[C@@H](NC(=O)[C@@H](NC(C)=O)c2ccccc2)CSSC[C@@H](C(N)=O)NC1=O` [UPAR-486, Ac-Phg-[Cys-Arg-Gln-Tyr-Phe-Pro-Hyp-Ile-Nva-Cys]-NH2] (Ac-[Phg]CRQYFP[Hyp]I[Nva]C-NH2; disulfide 2-11), the Kd on human uPAR (uPAR-Fc) (setting [2]) was less than 1.58 nM.
